Source: ChEMBL document CHEMBL1201862, “PubChem BioAssay data set” (2004)
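Method: 48-hour compound exposure of cells in 96-well plates, five concentrations, linear interpolation of endpoints. GI50 is the concentration that inhibits growth by half.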 The source made the active and inactive calls. Cut-off read from the data, not from the text of the source: active = GI50 up to about 1.1 µM and inactive = higher.

Experiments:
Test in all cases: DTP human tumour cell line panel, 48 h
[1] = system: EKVX
[2] = system: Hs-578T
[3] = system: A498
[4] = system: RPMI-8226
[5] = system: SN12C
[6] = system: SNB-19
[7] = system: UACC-62
[8] = system: 786-0
[9] = system: SK-MEL-5
[10] = system: HCC 2998
[11] = system: MDA-MB-231
[12] = system: MCF7
[13] = system: KM12
[14] = system: A549
[15] = system: BT-549
[16] = system: M14
[17] = system: HT-29
[18] = system: SK-OV-3
[19] = system: PC-3
[20] = system: UACC-257
[21] = system: T47D
[22] = system: MOLT-4
[23] = system: RXF 393
[24] = system: DU-145
[25] = system: SNB-75
[26] = system: NCI-H460
[27] = system: OVCAR-3
[28] = system: COLO 205
[29] = system: IGROV-1
[30] = system: SW-620
[31] = system: OVCAR-5
[32] = system: UO-31
[33] = system: OVCAR-4
[34] = system: K562
[35] = system: HCT-15
[36] = system: HCT-116
[37] = system: SF-295
[38] = system: HOP-92
[39] = system: NCI-H522
[40] = system: ACHN
[41] = system: Malme-3M
[42] = system: SK-MEL-2
[43] = system: TK-10
[44] = system: LOX IMVI
[45] = system: HL-60
[46] = system: NCI-H23
[47] = system: CAKI-1
[48] = system: NCI/ADR-RES
[49] = system: SF-268
[50] = system: HOP-62
[51] = system: MDA-N
[52] = system: U-251
[53] = system: OVCAR-8
[54] = system: SR
[55] = system: MDA-MB-435
[56] = system: CCRF-CEM
[57] = system: SK-MEL-28
[58] = system: NCI-H226
[59] = system: SF-539

Measured: GI50

CCCCN1C(=O)C[C@H]2[C@@H]3CCc4cc(OCCN5CCCC5)ccc4[C@H]3CC[C@]2(C)C1=O
6 µM: [35]
active: [17] 0.979 µM
inactive: [1] 14.5 µM | [2] 13.2 µM | [3] 14.7 µM | [4] 2.96 µM | [5] 14.2 µM | [6] 12.6 µM | [7] 3.72 µM | [8] 2.88 µM | [9] 5.94 µM | [10] 10.3 µM | [11] 4.71 µM | [12] 5.65 µM | [13] 7.94 µM | [14] 7.8 µM | [15] 13.7 µM | [16] 2.03 µM | [18] 13.9 µM | [19] 7.48 µM | [20] 4.38 µM | [21] 12.3 µM | [22] 2.65 µM | [23] 1.89 µM | [24] 13.9 µM | [25] 3.4 µM | [26] 5.79 µM | [27] 10.6 µM | [28] 1.92 µM | [29] 15.7 µM | [30] 11.5 µM | [31] 11.4 µM | [32] 4.6 µM | [33] 14.1 µM | [34] 1.74 µM | [36] 3.64 µM | [37] 3.9 µM | [38] 6.08 µM | [39] 8.41 µM | [40] 12.9 µM | [41] 3.89 µM | [42] 4.67 µM | [43] 14.6 µM | [44] 3.19 µM | [45] 7.1 µM | [46] 11.4 µM | [47] 7.96 µM | [48] 14.7 µM | [49] 12.9 µM | [50] 4.07 µM | [51] 4.38 µM | [52] 5.51 µM | [53] 15.1 µM | [54] 3.79 µM | [55] 6.31 µM | [56] 4.06 µM | [57] 3.45 µM | [58] 6.53 µM | [59] 9.71 µM

CC(C)NC(=O)OCc1c(COC(=O)NC(C)C)c(-c2cc[n+](COC(=O)Cc3ccccc3)cc2)n2c1CCC2
inactive: [1] > 100 µM | [2] > 100 µM | [3] > 100 µM | [4] > 100 µM | [5] > 100 µM | [6] > 100 µM | [7] 56.2 µM | [8] 46 µM | [9] > 100 µM | [10] > 100 µM | [11] > 100 µM | [12] 67.5 µM | [13] > 100 µM | [14] > 100 µM | [15] > 100 µM | [16] > 100 µM | [17] > 100 µM | [18] > 100 µM | [19] > 100 µM | [20] > 100 µM | [21] > 100 µM | [22] 47.8 µM | [23] > 100 µM | [24] > 100 µM | [25] 54.6 µM | [26] 52 µM | [27] > 100 µM | [28] > 100 µM | [29] > 100 µM | [30] > 100 µM | [31] > 100 µM | [32] > 100 µM | [33] > 100 µM | [34] > 100 µM | [36] > 100 µM | [37] 92 µM | [38] > 100 µM | [39] > 100 µM | [40] 40.5 µM | [41] > 100 µM | [42] > 100 µM | [43] > 100 µM | [44] > 100 µM | [45] 31.9 µM | [46] 56.6 µM | [47] 37.8 µM | [48] > 100 µM | [49] 55.1 µM | [50] 72.9 µM | [51] > 100 µM | [52] > 100 µM | [53] > 100 µM | [54] 9.59 µM | [55] > 100 µM | [56] 38.5 µM | [57] > 100 µM | [58] > 100 µM | [59] > 100 µM
> 100 µM: [35]
